From US5814627A, “3, 5-disubstituted and 3, 4, 5-trisubstituted 2-isoxazolines and isoxazoles, process for their preparation and their use as pharmaceuticals” (Hoechst Aktienegesellschaft, priority 1994, dated 1998) come the findings set out here.

The subject of one assay is adjuvant/arthritis model. The assay can be described thus: Test 6: antiarthritic effect in the adjuvant/arthritis model. The class given is in vivo, rat (Wistar-Lewis). The conditions noted are these: for inhibition in vivo at 50 mg/kg / inhibition in vivo at 25 mg/kg / inhibition in vivo at 20 mg/kg: Rattus norvegicus, po, 408 h, read-out: Test 6 Paw volume (% inhibition); for inhibition in vivo at 25 mg/kg / Test 6 Paw volume (% inhibition): 25 mg/kg orally; for Test 6 Paw volume (% inhibition): hydrochloride; for inhibition in vivo at 20 mg/kg: 20 mg/kg orally.

Assay [1] has as its system tumor cell line 20-10-5S (hybridoma cell line). The assay can be described thus: Test 8: Inhibition of tumor cell proliferation. It counts as cell-based. Conditions: 48 h + 16 h tritiated thymidine incorporation; 20-10-5S cells.
Experimental: The tumor cell line 20-10-5S (hybridoma cell line, supplied by ATCC (American Type Culture Collection)), which produces an antibody against mouse T cells) was used for determining the antiproliferative property of test substances. The cells were cultured, at 37° C. and 5% C2, under serum-free conditions in CG medium (cell-growth medium=Iscove-ATL (+albumin+transferrin+lipids); from Vitromex, Vilshofen). Only cells which were in the logarithmic phase of growth were used for the test mixture. The test substances were pipetted in various concentrations (from 1 to 50 μM), together with 4×10^3 20-10-5S cells, into round-bottomedmicrotiter plates (total volume with medium, 200 μl). After an incubation time of 48 h (37° C. and 5% CO2), 25 μl of tritiated thymidine (=0.25 μCi/test mixture, specific activity, 23 Ci/mM) were added to the plates. During the subsequent 16 h, the radioactively labeled thymidine was incorporated into the DNA of the growing cells. The samples were filtered off with suction on glass fiber filters and the incorporated radioactivity was measured using a β counter (Beta Plate System 1205 from Wallac).
Assay [2] has as its system polymorphonuclear leucocytes (PMNL). The assay can be described thus: Test 1: Release of proteolytic activity from human PMNL. It counts as cell-based. The conditions noted are these: for activity at 10 µM / activity at 100 µM / activity at 1 µM: Homo sapiens, PMNL, read-out: Test 1 residual activity (release of proteolytic activity), percent of control; for Test 1 residual activity (release of proteolytic activity), percent of control: hydrochloride. The protocol: Isolation of polymorphonuclear leucocytes (PMNL) from human peripheral blood for carrying out tests 1 and 2 10 ml of human blood were diluted with 10 ml of HBSS (Serva) and underlaid with 15 ml of Lymphoprep (Dr. Molter GmbH, Heidelberg). […] A white ring, composed of mononuclear cells, is located between these two phases. The lowermost phase is composed of erythrocytes which are covered with a white layer of PMNL. The uppermost phase, and also the Lymphoprep and the white ring, were carefully removed using a syringe. The remaining sediment was carefully resuspended in 15 ml of 3% dextran in PM16 (mw: 485,000, Sigma, Deisenhofen). The suspension was then left to stand at room temperature for one hour. During this time, the erythrocytes sedimented while the PMNL remained in the supernatant. The supernatant was removed, diluted with an approximately equal volume of PM16, and centrifuged for 15 minutes at 400×g. Should the PMNL sediment be heavily contaminated with erythrocytes, it is necessary to carry out a hypotonic lysis. To do this, the sediment was resuspended in 750 μl of water. After exactly 15 seconds, the suspension was diluted with approximately 7 ml of PM16 and centrifuged for 10 minutes at 400×g. If necessary, this lysis was repeated once more. Otherwise, the PMNL sediment was resuspended in a suitable medium. 250 μl of PMNL (5·10^6 cells/ml of PBS containing 7.5 mM glucose) were incubated at 37° C. for 20 minutes with 1 μl of test substance. 1 μl of cytochalasin B (5 μg/ml of test mixture) was then added and the mixture was incubated at 37° C. for a further 5 minutes. Following the addition of 1 μl of […] necrosis factor alpha (TNF; 30 ng/ml of test mixture), the incubation was continued for 5 minutes. The release was started using 1 μl of fMLP (10 nmol/l of test mixture). After 60 minutes at 37° C., the reaction was terminated by cooling the samples down to 0° C. The samples were then centrifuged, and the supernatant was removed and frozen down. Cytochalasin B and fMLP were dissolved in DMSO and TNF was diluted with buffer. 50 μl of the supernatant were mixed with 175 μl of buffer (100 mM HEPES, pH 7.5; 500 mM NaCl) in a 96-well microtiter plate. Following the addition of 25 μl of substrate (methoxysuccinyl-[…]-nitroanilide), the extinction of each well was measured at 405 nm after 0, 5, 10, 15, 30 and 60 minutes. […] The interleukin is additionally indicated in test 4.

The subject of assay [3] is cyclooxygenase-dependent thrombocyte aggregation. The assay can be described thus: Test 5: Cyclooxygenase-dependent thrombocyte aggregation. Conditions: arachidonic acid as inducer; for activity at 25 µM / activity at 100 µM: Homo sapiens, read-out: Test 5 residual activity (cyclooxygenase-dependent thrombocyte aggregation), percent of control; for activity at 25 µM / Test 5 residual activity (cyclooxygenase-dependent thrombocyte aggregation), percent of control: 25 μM; for Test 5 residual activity (cyclooxygenase-dependent thrombocyte aggregation), percent of control: hydrochloride. The class given is cell-based, human. The protocol:
TEST 5. Cyclooxygenase-dependent thrombocyte aggregation
Platelet-rich plasma (PRP): to inhibit coagulation, human blood was treated with 1/10 of its volume of 3.8% sodium citrate solution. Centrifugation then takes place at 105×g for 20 minutes and the supernatant (PRP) is removed. 200 μl of PRP were preincubated, at 37° C. for 10 minutes, together with 30 μl of test substance in a PAP4 aggregometer (BioData). The test substance was dissolved in organic solvent and diluted 1:30 with buffer (50 mM TisHCl, pH 8.0; 90 mM NaCl). Aggregation is triggered with 20 μl of inducer. During the aggregation, stirring takes place at 800 rpm. Arachidonic acid, 5 mg/ml, was used as the inducer.
The values in the table show the concentration of the test substance which was employed in μM and, besides this, the residual activity measured in percent based on the control, which was set to be 100%. The interleukin is additionally indicated in test 4.

The mark [4] stands for this setting: 50 mg/kg orally, daily for 17 days, rat.

Structures can show the parent of a compound that is named as a salt. Where two headings read alike, the source gives them in different places.

Experimental for adjuvant/arthritis model: Male rats of a Wistar-Lewis strain (Mollegaard/Denmark) were used as experimental animals. The body weight is between 160 and 200 g. Subplantar injection of 0.1 ml of Freund's adjuvant (=6 mg of Mycobacterium butyricum suspension, Difco Lab./Detroit, Mich. USA, per ml of heavy white paraffin oil, Merck, Darmstadt) into the root of the tail resulted, on the 10th to 14th day of the experiment, in immunopathological processes and chronic inflammations, particularly in the form of arthritic and periarthritic symptoms, at other sites in the body (secondary lesions). The animals were fed ad libitum with the standard feed Altromin-R, from Altrogge, Lage, and provided with tap water. The animals were given 60 mg of codein per kg as an analgesic from the 14th day to the end of the experiment. The test substances were administered orally as a CMC suspension, in an injection volume of 1 ml/100 g of body weight, on each day (in all for 17 days), beginning on the day of the adjuvant administration. The volumes of each of the hind paws, and the body weight, were measured on the first and on the 18th day of the experiment. Diminution in the increase of paw volume, as compared with the untreated control group, served as the criterion of activity, with the two hind paws being averaged.

`CC(=O)O[C@@H](C)[C@@H]1CC(c2cc(C(C)(C)C)c(O)c(C(C)(C)C)c2)=NO1` (relative stereo) [Example 22, 1-(3-(4-Hydroxy-3,5-di-tert-butylphenyl)-2-isoxazolin-5-yl)ethyl acetate]: the inhibition in vivo at 50 mg/kg with adjuvant/arthritis model (setting [4]) turned out to be 74%.
Take `CC(C)(C)c1cc(C2=NO[C@H]([C@H](O)CO)C2)cc(C(C)(C)C)c1O` (relative stereo) [Example 89, 3-(3,5-Di-tert-butyl-4-hydroxyphenyl)-5-(1,2-dihydroxyethyl)-2-isoxazoline,rac. erythro isomer]: in the assay with adjuvant/arthritis model (setting [4]), the inhibition in vivo at 50 mg/kg was determined as 36%. Further, the IC50 in assay [1] amounted to 20 µM.
Turning to `CC(C)(C)c1cc(-c2cc(CNC(=O)[C@@H](N)Cc3ccccc3)on2)cc(C(C)(C)C)c1O` [Example 55, L-Phenylalanyl-N-(3-(4-hydroxy-3,5-di-tert-butylphenyl)-isoxazol-5-ylmethyl)amide hydrochloride], the inhibition in vivo at 50 mg/kg in the assay with adjuvant/arthritis model was 47%. Also, the IC50 in assay [1] is below 5 µM.
As for `CC(C)(C)c1cc(C2=NOC(C(C)(C)O)C2)cc(C(C)(C)C)c1O` (stereo not shown) [Example 69], the inhibition in vivo at 50 mg/kg with adjuvant/arthritis model (setting [4]) worked out at 83%. Further, the IC50 in assay [1] was 5 to 10 µM.
The matching figures for `CC(O)Cc1cc(-c2cc(C(C)(C)C)c(O)c(C(C)(C)C)c2)no1` (stereo not shown) [Example 30]: 63% and 5 to 10 µM.
As to `CC(OC(=O)[C@@H](N)Cc1ccccc1)C1CC(c2cc(C(C)(C)C)c(O)c(C(C)(C)C)c2)=NO1` (single isomer, unassigned) [Example 74, L-Phenylalanine-1-(3-(4-hydroxy-3,5-di-tert-butylphenyl)isoxazolin-5-yl)ethyl ester hydrochloride], in assay [2] (10 μM), the activity at 10 µM came to 64%. Besides, the activity at 25 µM in assay [3] is 95%. In the assay on adjuvant/arthritis model (daily for 17 days, rat), the inhibition in vivo at 25 mg/kg is 60%. The IC50 in assay [1] was 5 to 10 µM.
With `CC(C)(C)c1cc(-c2cc(CCCCO)on2)cc(C(C)(C)C)c1O` [Example 27], in assay [3], the activity at 100 µM was determined as 97%. In addition, in the assay with adjuvant/arthritis model (setting [4]), the inhibition in vivo at 50 mg/kg came out at 71%. Further, the IC50 in assay [1] is below 5 µM.
On to `CC(=O)CC(=O)O[C@H](C)[C@@H]1CC(c2cc(C(C)(C)C)c(O)c(C(C)(C)C)c2)=NO1` (relative stereo) [Example 84, 1-(3-(4-Hydroxy-3,5-di-tert-butylphenyl)-2-isoxazolin-5-yl)ethyl 3-oxobutyrate], for which the inhibition in vivo at 25 mg/kg in the assay on adjuvant/arthritis model (daily for 17 days, rat) was 49%.
For the compound `C[C@@H](OC(=O)CN)[C@@H]1CC(c2cc(C(C)(C)C)c(O)c(C(C)(C)C)c2)=NO1` (relative stereo) [Example 77, Glycine-1-(3-(4-hydroxy-3,5-di-tert-butylphenyl)-2-isoxazoline-5-yl)ethyl ester hydrochloride], the activity at 10 µM in assay [2] (10 μM) amounted to 74%. Also, the activity at 100 µM in assay [2] was found to be 30%. Besides, in assay [3], the activity at 25 µM amounted to 100%. Further, the inhibition in vivo at 50 mg/kg in the assay with adjuvant/arthritis model (setting [4]) worked out at 82%. In assay [1], the IC50 worked out at 20 µM.
For `CC(OC(=O)[C@@H](N)Cc1ccccc1)C1CC(c2cc(C(C)(C)C)c(O)c(C(C)(C)C)c2)=NO1` (single isomer, unassigned) [Example 75, L-Phenylalanine-1-(3-(4-hydroxy-3,5-di-tert-butylphenyl)isoxazolin-5-yl)ethyl ester hydrochloride], the “Test 1 residual activity (release of proteolytic activity), percent of control” value in assay [2] (10 μM) is recorded as 49%. Further, the activity at 1 µM in assay [2] (1 μM) was 89%. Also, the “Test 5 residual activity (cyclooxygenase-dependent thrombocyte aggregation), percent of control” value in assay [3] was 98%. Moreover, the “Test 6 Paw volume (% inhibition)” value in the assay with adjuvant/arthritis model (daily for 17 days, rat) is given as 76%. For the same compound, the IC50 in assay [1] was 5 to 10 µM.
Consider `CC(C)(C)c1cc(C2=NOC3(CC3)C2)cc(C(C)(C)C)c1O` [Example 12], for which the inhibition in vivo at 50 mg/kg with adjuvant/arthritis model (setting [4]) is 82%. In addition, in assay [1], the IC50 was determined as 10 µM.
As for `CC(C)(C)c1cc(-c2cc(C=O)on2)cc(C(C)(C)C)c1O` [Example 66], in the assay with adjuvant/arthritis model (daily for 17 days, rat), the inhibition in vivo at 25 mg/kg worked out at 59%. The IC50 in assay [1] was below 5 µM.
Regarding `C[C@@H](OC(=O)c1ccc(CN2CCOCC2)cc1)[C@@H]1CC(c2cc(C(C)(C)C)c(O)c(C(C)(C)C)c2)=NO1` (relative stereo) [Example 86, 1-(3-(4-Hydroxy-3,5-di-tert-butylphenyl)-2-isoxazolin-5-yl)ethyl 4-(4-morpholino)methylbenzoate hydrochloride], in the assay with adjuvant/arthritis model (daily for 17 days, rat), the inhibition in vivo at 20 mg/kg turned out to be 70%. Also, the IC50 in assay [1] was below 5 µM.
Take `CC(O)CC1CC(c2cc(C(C)(C)C)c(O)c(C(C)(C)C)c2)=NO1` (stereo not shown) [Example 15]: the inhibition in vivo at 50 mg/kg in the assay with adjuvant/arthritis model (setting [4]) was determined as 60%. The IC50 in assay [1] is 8 to 15 µM.
Take `CC(OC(=O)[C@@H](N)Cc1ccccc1)c1cc(-c2cc(C(C)(C)C)c(O)c(C(C)(C)C)c2)no1.Cl` (single isomer, unassigned) [Example 72, L-Phenylalanine-1-(3-(4-hydroxy-3,5-di-tert-butylphenyl)isoxazol-5-yl)ethylester hydrochloride]: the “Test 1 residual activity (release of proteolytic activity), percent of control” value in assay [2] (1 μM) came to 82%; in assay [2] (10 μM), 51%. In assay [3], the “Test 5 residual activity (cyclooxygenase-dependent thrombocyte aggregation), percent of control” value is given as 100%. In the assay with adjuvant/arthritis model (daily for 17 days, rat), the “Test 6 Paw volume (% inhibition)” value was 60%. For the same compound, the IC50 in assay [1] was 5 to 10 µM.
Turning to `CC(C)(C)c1cc(C2=NOC3(CCC3)C2)cc(C(C)(C)C)c1O` [Example 67], in the assay with adjuvant/arthritis model (setting [4]), the inhibition in vivo at 50 mg/kg is 53%. For the same compound, the IC50 in assay [1] was below 5 µM.
Consider `CC(C)(C)c1cc(-c2cc(CNC(=O)[C@H](O)[C@@H](O)C(=O)O)on2)cc(C(C)(C)C)c1O` [Example 83], for which the inhibition in vivo at 50 mg/kg with adjuvant/arthritis model (setting [4]) worked out at 39%.
Regarding `CCCCCCCCCCCCCCCC(=O)O[C@H](C)[C@@H]1CC(c2cc(C(C)(C)C)c(O)c(C(C)(C)C)c2)=NO1` (relative stereo) [Example 81, 1-(3-(4-Hydroxy-3,5-di-tert-butylphenyl)-2-isoxazolin-5-yl)ethyl hexadecanoate (erythro isomer)], in assay [3], the activity at 100 µM was found to be 100%. For the same compound, the inhibition in vivo at 50 mg/kg in the assay on adjuvant/arthritis model (setting [4]) was found to be 67%.
On to `C[C@H](OC(=O)c1ccc(CN2CCOCC2)cc1)[C@@H]1CC(c2cc(C(C)(C)C)c(O)c(C(C)(C)C)c2)=NO1` (relative stereo) [Example 87, 1-(3-(4-Hydroxy-3,5-di-tert-butylphenyl)-2-isoxazolin-5-yl)ethyl 4-(4-morpholino)methylbenzoate hydrochloride], for which the inhibition in vivo at 20 mg/kg in the assay on adjuvant/arthritis model (daily for 17 days, rat) worked out at 50%. Moreover, the IC50 in assay [1] is below 5 µM.
With `CC(C)(C)c1cc(-c2noc(CO)c2CO)cc(C(C)(C)C)c1O` [Example 32], the activity at 1 µM in assay [2] (1 μM) was determined as 84%. For the same compound, in assay [2] (10 μM), the activity at 10 µM came out at 72%. Further, the activity at 100 µM in assay [2] is 34%.
As to `CC(C)(C)c1cc(C2=NO[C@H]([C@@H](O)CO)C2)cc(C(C)(C)C)c1O` (relative stereo) [Example 90, 3-(3,5-Di-tert-butyl-4-hydroxyphenyl)-5-(1,2-dihydroxyethyl)-2-isoxazoline,rac. threo isomer], the inhibition in vivo at 50 mg/kg in the assay with adjuvant/arthritis model (setting [4]) turned out to be 36%. The IC50 in assay [1] was determined as 30 µM.
